Our source for the Kd values is patent US20240116892A1, “HETEROCYCLIC AMIDE AND UREA COMPOUNDS AS JAK2 INHIBITORS” (Ajax Therapeutics, Inc., priority 2022, published 2024).

pKd: −log10 of the molar value. Bounds are passed on as bounds.

JAK2 (JH1 domain-catalytic, Y1007F, Y1008F) kinase, sequence (O60674 849-1124 Y1007F/Y1008F): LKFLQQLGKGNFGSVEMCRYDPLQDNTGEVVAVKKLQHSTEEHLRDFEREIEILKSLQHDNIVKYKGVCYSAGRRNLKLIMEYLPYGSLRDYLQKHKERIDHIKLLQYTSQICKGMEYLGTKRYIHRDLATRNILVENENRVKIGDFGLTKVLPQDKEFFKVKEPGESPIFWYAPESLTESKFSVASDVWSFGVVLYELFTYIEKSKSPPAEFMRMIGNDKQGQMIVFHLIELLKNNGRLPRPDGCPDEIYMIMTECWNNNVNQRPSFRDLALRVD

This test addresses JAK2 (JH1 domain-catalytic, Y1007F, Y1008F) kinase (Homo sapiens (Human), UniProt O60674, Y1007F/Y1008F). Briefly: JAK2 JH1 Domain Binding Assay. The settings on record: qPCR readout. Put shortly: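 JH1 catalytic domain (Y1007F/Y1008F) expressed as NFkB DNA-binding-domain fusion in HEK293 cells, DNA-tagged. Competition with immobilized biotinylated ligand on streptavidin beads, 1 h at RT in PBS/Tween/BSA/DTT; bound kinase eluted with free ligand and quantified by qPCR.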
As a reminder, the pKd is the negative decadic logarithm of the Kd, by convention in mol/L. Turning to `CN(C(=O)Nc1cc(C(F)(F)F)cn(C)c1=O)C1CCN(c2cnc3[nH]cc(F)c3n2)CC1` [Example I-39, 1-(1-(7-fluoro-5H-pyrrolo[2,3-b]pyrazin-2-yl)piperidin-4-yl)-1-methyl-3-(1-methyl-2-oxo-5-(trifluoromethyl)-1,2-dihydropyridin-3-yl)urea], the pKd was over 8.00.
As for `COCc1cc2nc(N3CC[C@@H](N(C)C(=O)Nc4cc(C(F)(F)F)cn(C)c4=O)C(F)(F)C3)cnc2[nH]1` [Example I-110-a, (R)-1-(3,3-difluoro-1-(6-(methoxymethyl)-5H-pyrrolo[2,3-b]pyrazin-2-yl)piperidin-4-yl)-1-methyl-3-(1-methyl-2-oxo-5-(trifluoromethyl)-1,2-dihydropyridin-3-yl)urea], the figure is over 8.00; as for `CN(C(=O)Nc1cc(C(F)(F)F)ccn1)[C@H]1CCN(c2cnc3[nH]ncc3c2)C[C@@H]1F` [Example I-176, 1-((3S,4S)-3-fluoro-1-(1H-pyrazolo[3,4-b]pyridin-5-yl)piperidin-4-yl)-1-methyl-3-(4-(trifluoromethyl)pyridin-2-yl)urea], over 8.00; as for `Cn1cc(C(F)(F)F)cc(NC(=O)N(C)[C@H]2CC[C@@H](c3cnc4[nH]cc(N5CCOCC5)c4n3)CC2)c1=O` [Example I-142, cis-1-methyl-3-(1-methyl-2-oxo-5-(trifluoromethyl)-1,2-dihydropyridin-3-yl)-1-(4-(7-morpholino-5H-pyrrolo[2,3-b]pyrazin-2-yl)cyclohexyl)urea], 6.00 to 7.30.
As for `CN(C(=O)Nc1cc(C(F)(F)F)cn(C)c1=O)[C@H]1CCN(c2cnc3[nH]nc(OC4CCOCC4)c3c2)C[C@@H]1F` [Example I-114-a, 1-((3S,4S)-3-fluoro-1-(3-((tetrahydro-2H-pyran-4-yl)oxy)-1H-pyrazolo[3,4-b]pyridin-5-yl)piperidin-4-yl)-1-methyl-3-(1-methyl-2-oxo-5-(trifluoromethyl)-1,2-dihydropyridin-3-yl)urea], the figure is over 8.00.
`C[C@@H]1CN(C(=O)Nc2cc(C(F)(F)F)cn(C)c2=O)C2(CCN(c3cnc4[nH]ccc4n3)CC2)C1` (single isomer, unassigned) [Example I-53-a] showed a pKd of 6.00 to 7.30.
Turning to `CN(C(=O)Nc1cc(C(F)(F)F)cn(C)c1=O)C1CCN(c2cnc3[nH]ccc3c2)CC1` [Example I-21, 1-(1-(1H-pyrrolo[2,3-b]pyridin-5-yl)piperidin-4-yl)-1-methyl-3-(1-methyl-2-oxo-5-(trifluoromethyl)-1,2-dihydropyridin-3-yl)urea], the pKd is over 8.00.
In turn, `CN(C(=O)Nc1cc(C(F)(F)F)cn(C)c1=O)C12CC(c3cnc4[nH]nc(OC5CCOC5)c4c3)(C1)C2` (mixture of isomers) [Example I-166, (S)-1-methyl-3-(1-methyl-2-oxo-5-(trifluoromethyl)-1,2-dihydropyridin-3-yl)-1-(3-(3-((tetrahydrofuran-3-yl)oxy)-1H-pyrazolo[3,4-b]pyridin-5-yl)bicyclo[1.1.1]pentan-1-yl)urea and (R)-1-methyl-3-(1-methyl-2-oxo-5-(trifluoromethyl)-1,2-dihydropyridin-3-yl)-1-(3-(3-((tetrahydrofuran-3-yl)oxy)-1H-pyrazolo[3,4-b]pyridin-5-yl)bicyclo[1.1.1]pentan-1-yl)urea] gave a pKd of over 8.00.
`CN(C(=O)Nc1cc(C(F)(F)F)cn(C)c1=O)[C@@H]1CCN(c2cnc3[nH]nc(OC4COC4)c3c2)C[C@@H]1F` [Example I-101-a, 1-((3S,4R)-3-fluoro-1-(3-(oxetan-3-yloxy)-1H-pyrazolo[3,4-b]pyridin-5-yl)piperidin-4-yl)-1-methyl-3-(1-methyl-2-oxo-5-(trifluoromethyl)-1,2-dihydropyridin-3-yl)urea]: the pKd is 5.30 to 6.00.
Turning to `CN(C(=O)Nc1cc(C(F)(F)F)cn(C)c1=O)C1(C)CCN(c2cnc3[nH]cc(F)c3n2)CC1` [Example I-56, 1-(1-(7-fluoro-5H-pyrrolo[2,3-b]pyrazin-2-yl)-4-methylpiperidin-4-yl)-1-methyl-3-(1-methyl-2-oxo-5-(trifluoromethyl)-1,2-dihydropyridin-3-yl)urea], the pKd was 7.30 to 8.00.
As for `CN(C(=O)Nc1cc(C(F)(F)F)cn(C)c1=O)[C@@H]1CCN(c2cnc3cn[nH]c3c2)C[C@@H]1F` [Example I-95-b, 1-((3S,4R)-3-fluoro-1-(1H-pyrazolo[4,3-b]pyridin-6-yl)piperidin-4-yl)-1-methyl-3-(1-methyl-2-oxo-5-(trifluoromethyl)-1,2-dihydropyridin-3-yl)urea], the pKd is over 8.00.
For the molecule `COCc1cc2nc(N3CC[C@@H](N(C)C(=O)Nc4cc(C(F)(F)F)cn(C)c4=O)[C@H](OC)C3)cnc2[nH]1` [Example I-113-b, 1-((3R,4R)-3-methoxy-1-(6-(methoxymethyl)-5H-pyrrolo[2,3-b]pyrazin-2-yl)piperidin-4-yl)-1-methyl-3-(1-methyl-2-oxo-5-(trifluoromethyl)-1,2-dihydropyridin-3-yl)urea], the pKd was 5.30 to 6.00.
As for `COc1n[nH]c2ncc(N3CC[C@@H](N(C)C(=O)Nc4cc(C(F)(F)F)cn(C)c4=O)[C@@H](F)C3)cc12` [Example I-87-a, 1-((3S,4R)-3-fluoro-1-(3-methoxy-1H-pyrazolo[3,4-b]pyridin-5-yl)piperidin-4-yl)-1-methyl-3-(1-methyl-2-oxo-5-(trifluoromethyl)-1,2-dihydropyridin-3-yl)urea], the figure is over 8.00.
For `Cc1cc(NC(=O)C2(C3CCN(c4cnccn4)CC3)CC2)cc(C(F)(F)F)c1` [Example I-4, N-(3-methyl-5-(trifluoromethyl)phenyl)-1-(1-(pyrazin-2-yl)piperidin-4-yl)cyclopropane-1-carboxamide], the pKd is 6.00 to 7.30.
The same measure for `CN(C(=O)Nc1cc(C(F)(F)F)cn(C)c1=O)C1CCN(c2cnc3[nH]n(C4CCOCC4)c(=O)c3c2)CC1` [Example I-112, 1-methyl-3-(1-methyl-2-oxo-5-(trifluoromethyl)-1,2-dihydropyridin-3-yl)-1-(1-(3-oxo-2-(tetrahydro-2H-pyran-4-yl)-2,3-dihydro-1H-pyrazolo[3,4-b]pyridin-5-yl)piperidin-4-yl)urea]: 7.30 to 8.00.
As for `Cn1cc(C(F)(F)F)cc(NC(=O)OC2(C)CCN(c3cnc4[nH]ccc4n3)CC2)c1=O` [Example I-71, 4-methyl-1-(5H-pyrrolo[2,3-b]pyrazin-2-yl)piperidin-4-yl (1-methyl-2-oxo-5-(trifluoromethyl)-1,2-dihydropyridin-3-yl)carbamate], the figure is 6.00 to 7.30; as for `CN(C(=O)Nc1cc(C(F)(F)F)cn(C)c1=O)[C@H]1CCN(c2cnc3[nH]n(C)c(=O)c3c2)CC1F` (stereo in doubt) [Example I-90-a, 1-((3R,4S)-3-fluoro-1-(2-methyl-3-oxo-2,3-dihydro-1H-pyrazolo[3,4-b]pyridin-5-yl)piperidin-4-yl)-1-methyl-3-(1-methyl-2-oxo-5-(trifluoromethyl)-1,2-dihydropyridin-3-yl)urea], 7.30 to 8.00; as for “1-(1-(3-((1R,2R)-2-hydroxycyclobutoxy)-1H-pyrazolo[3,4-b]pyridin-5-yl)piperidin-4-yl)-1-methyl-3-(1-methyl-2-oxo-5-(trifluoromethyl)-1,2-dihydropyridin-3-yl)urea and 1-(1-(3-((1S,2S)-2-hydroxycyclobutoxy)-1H-pyrazolo[3,4-b]pyridin-5-yl)piperidin-4-yl)-1-methyl-3-(1-methyl-2-oxo-5-(trifluoromethyl)-1,2-dihydropyridin-3-yl)urea [Example I-184-b]”, 5.30 to 6.00.
